Results taken from patent US11485742B2, “2-azaspiro[3.4]octane derivatives as M4 agonists” (NOVARTIS AG, priority 2019, dated 2022).

Assays:
[1] = biological target: T1, human cloned CHRM2 receptor (Homo sapiens, UniProt P08172); experiment: CHRM2 Ca++ Flux Assay (M2_CHO cells, agonist mode); format: cell-based; conditions: M2 CHO cells; for EC50: agonist mode, geometric mean if tested more than once, read-out: M2 FDSS EC50; for Emax / M2 FDSS PA %: Percent Activity (PA) measured to EC100 of Carbachol; for Emax: read-out: M2 FDSS PA %
T1 construct: expressed in transfected cells; host or cells: CHO-K1 (M2_CHO)
T1 sequence (P08172 1-466): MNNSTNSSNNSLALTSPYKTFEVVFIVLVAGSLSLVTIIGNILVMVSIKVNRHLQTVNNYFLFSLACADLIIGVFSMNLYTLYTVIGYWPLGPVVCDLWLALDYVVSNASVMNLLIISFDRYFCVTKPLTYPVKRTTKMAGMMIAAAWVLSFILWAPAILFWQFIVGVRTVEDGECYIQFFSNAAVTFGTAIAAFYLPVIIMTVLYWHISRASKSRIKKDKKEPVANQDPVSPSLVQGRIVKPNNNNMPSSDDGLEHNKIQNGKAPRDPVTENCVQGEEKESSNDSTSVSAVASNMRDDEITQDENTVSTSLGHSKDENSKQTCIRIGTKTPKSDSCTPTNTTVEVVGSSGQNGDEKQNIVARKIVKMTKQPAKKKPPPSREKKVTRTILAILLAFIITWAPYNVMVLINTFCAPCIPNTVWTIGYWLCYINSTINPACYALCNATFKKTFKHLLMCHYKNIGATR
Outline: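 CHO-K1 cells stably expressing human CHRM2 were plated overnight at 12K cells/well and loaded with Ca++ dye for 1–2 h. They were then held 60 minutes in HBSS −Ca/−Mg, 20 mM HEPES, 2.5 mM probenecid, 20 μM ATP. Agonist-mode Ca++ flux was read over 3 minutes. Four-parameter fits of triplicates gave percent activity relative to carbachol EC100.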

[2] = biological target: T2, human cloned CHRM4 receptor (Homo sapiens, UniProt P08173); experiment: CHRM4 Ca++ Flux Assay (M4_CHO cells, agonist mode); format: cell-based; conditions: for Emax / M4 FDSS PA %: Percent Activity (PA); for Emax: read-out: M4 FDSS PA %; for EC50: geometric mean if tested more than once, read-out: M4 FDSS EC50
T2 construct: expressed in transfected cells; host or cells: CHO-K1 (M4_CHO)
T2 sequence (P08173 1-479): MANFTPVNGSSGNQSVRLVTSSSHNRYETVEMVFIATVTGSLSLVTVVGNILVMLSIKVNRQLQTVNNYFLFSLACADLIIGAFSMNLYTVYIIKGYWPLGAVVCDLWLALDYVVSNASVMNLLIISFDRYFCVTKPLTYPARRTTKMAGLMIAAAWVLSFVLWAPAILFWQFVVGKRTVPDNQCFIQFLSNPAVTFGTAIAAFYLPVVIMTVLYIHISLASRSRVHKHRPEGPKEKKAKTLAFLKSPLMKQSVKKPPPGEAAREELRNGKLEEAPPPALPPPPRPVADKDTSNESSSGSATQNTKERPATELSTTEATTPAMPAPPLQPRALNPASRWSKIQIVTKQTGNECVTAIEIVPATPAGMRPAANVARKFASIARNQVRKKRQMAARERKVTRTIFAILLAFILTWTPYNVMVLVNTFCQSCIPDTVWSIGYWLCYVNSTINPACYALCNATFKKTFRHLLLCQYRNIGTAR
Outline: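 CHO-K1 cells stably expressing human M4 were dye-loaded, then held 60 min at RT in Ca/Mg-free HBSS buffer with 20 μM ATP. Ca++ traces were recorded over 3 min after an 11-point compound series in triplicate, agonist mode, with a four-parameter fit. Percent activity is relative to the carbachol EC100; repeat tests are geometric means.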

Row | Compound | EC50 [1] [nM] | Emax [1] [%] | Emax [2] [%] | EC50 [2] [nM] | M2 FDSS PA % [1] [%] | M4 FDSS PA % [2] [%]
1 | CC(C)(O)COc1ccc(F)cc1C1CCN([C@@H]2COC3(C2)CN(c2ncco2)C3)CC1 [Example 4K, (S)-1-(4-fluoro-2-(1-(2-(oxazol-2-yl)-5-oxa-2-azaspiro[3.4]octan-7-yl)piperidin-4-yl)phenoxy)-2-methylpropan-2-ol] | > 25000 | 0 | 66 | 25 | – | –
2 | Fc1ccc(O[C@H]2CCCOC2)c(C2CCN([C@@H]3COC4(C3)CN(c3nnco3)C4)CC2)c1 (single isomer, unassigned) [Example 2R, (S)-7-(4-(5-fluoro-2-(((S)-tetrahydro-2H-pyran-3-yl)oxy)phenyl)piperidin-1-yl)-2-(1,3,4-oxadiazol-2-yl)-5-oxa-2-azaspiro[3.4]octane or (S)-7-(4-(5-fluoro-2-(((R)-tetrahydro-2H-pyran-3-yl)oxy)phenyl)piperidin-1-yl)-2-(1,3,4-oxadiazol-2-yl)-5-oxa-2-azaspiro[3.4]octane] | 259 | – | – | 25 | 42 | 76
3 | COc1ccccc1C1CCN([C@@H]2COC3(C2)CN(c2nncs2)C3)CC1 [Example 5R, (S)-7-(4-(2-methoxyphenyl)piperidin-1-yl)-2-(1,3,4-thiadiazol-2-yl)-5-oxa-2-azaspiro[3.4]octane] | 1240 | 18 | 73 | 96 | – | –
4 | Fc1ccc([C@H]2CCOC2)c(C2CCN([C@@H]3COC4(C3)CN(c3nnco3)C4)CC2)c1 (single isomer, unassigned) [Example 3E, (S)-7-(4-(5-fluoro-2-((R)-tetrahydrofuran-3-yl)phenyl)piperidin-1-yl)-2-(1,3,4-oxadiazol-2-yl)-5-oxa-2-azaspiro[3.4]octane or (S)-7-(4-(5-fluoro-2-((S)-tetrahydrofuran-3-yl)phenyl)piperidin-1-yl)-2-(1,3,4-oxadiazol-2-yl)-5-oxa-2-azaspiro[3.4]octane] | 404 | – | – | 28 | 60 | 86
5 | c1ccc(C2CCN([C@@H]3COC4(C3)CN(c3nnco3)C4)CC2)c(C2CCOCC2)c1 [Example 3C, (S)-2-(1,3,4-oxadiazol-2-yl)-7-(4-(2-(tetrahydro-2H-pyran-4-yl)phenyl)piperidin-1-yl)-5-oxa-2-azaspiro[3.4]octane] | 4820 | 34 | 85 | 184 | – | –
6 | C[C@H](Oc1ccc(F)cc1C1CCN([C@@H]2COC3(C2)CN(c2nnco2)C3)CC1)C1CCOCC1 (single isomer, unassigned) [Example 2Y, (S)-7-(4-(5-fluoro-2-((S)-1-(tetrahydro-2H-pyran-4-yl)ethoxy)phenyl)piperidin-1-yl)-2-(1,3,4-oxadiazol-2-yl)-5-oxa-2-azaspiro[3.4]octane or (S)-7-(4-(5-fluoro-2-((R)-1-(tetrahydro-2H-pyran-4-yl)ethoxy)phenyl)piperidin-1-yl)-2-(1,3,4-oxadiazol-2-yl)-5-oxa-2-azaspiro[3.4]octane] | 3330 | – | – | 554 | 35 | 76
7 | O[C@H]1CC[C@@H](c2ccc(F)cc2C2CCN([C@@H]3COC4(C3)CN(c3nnco3)C4)CC2)CC1 (single isomer, unassigned) [Example 3H, (1R,4s)-4-(2-(1-((S)-2-(1,3,4-oxadiazol-2-yl)-5-oxa-2-azaspiro[3.4]octan-7-yl)piperidin-4-yl)-4-fluorophenyl)cyclohexan-1-ol or (1S,4r)-4-(2-(1-((S)-2-(1,3,4-oxadiazol-2-yl)-5-oxa-2-azaspiro[3.4]octan-7-yl)piperidin-4-yl)-4-fluorophenyl)cyclohexan-1-ol] | 2460 | – | – | 10 | 30 | 83.2
8 | Fc1ccc(OC2COC2)c(C2CCN([C@@H]3COC4(C3)CN(c3ncco3)C4)CC2)c1 [Example 4A, (S)-7-(4-(5-fluoro-2-(oxetan-3-yloxy)phenyl)piperidin-1-yl)-2-(oxazol-2-yl)-5-oxa-2-azaspiro[3.4]octane] | 432 | 21 | 80 | 4 | – | –
